Laboratory results published in article PMC6002460, “Pharmacological evaluation of new constituents of “Spice”: synthetic cannabinoids based on indole, indazole, benzimidazole and carbazole scaffolds” (Forensic Toxicology, 2018).
“Also recorded” adds a separate entry of the source. Read-outs that look alike come from different tables or passages of the source.

Tests used:
CB2 receptor [1] = settings: membrane potential assay, cited from earlier work
human CB2 receptor [2] = target: T1, human CB2 receptor (Homo sapiens, UniProt P34972); test: cAMP accumulation assay, CHO cells stably expressing CB2; format: cell-based; settings: for CB2 receptor activation in cAMP accumulation assay (in words): compound at 10 µM, normalized to CP55,940 (1 µM)
T1 construct: expressed in transfected cells; host or cells: CHO cells (membrane preparations)
T1 sequence (P34972 whole entry): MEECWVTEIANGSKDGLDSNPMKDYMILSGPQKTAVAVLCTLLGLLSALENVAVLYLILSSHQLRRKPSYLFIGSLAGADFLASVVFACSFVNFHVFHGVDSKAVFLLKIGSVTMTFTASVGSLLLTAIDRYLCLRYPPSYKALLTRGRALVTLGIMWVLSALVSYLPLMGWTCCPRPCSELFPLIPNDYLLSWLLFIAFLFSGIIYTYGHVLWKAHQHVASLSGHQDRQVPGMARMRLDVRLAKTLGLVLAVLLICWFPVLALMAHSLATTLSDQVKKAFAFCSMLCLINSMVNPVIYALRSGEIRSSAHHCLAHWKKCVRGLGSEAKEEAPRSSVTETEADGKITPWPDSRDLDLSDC
Experimental: (§1) cAMP accumulation assays were performed also as previously described. Briefly, CHO cells stably expressing the respective human CB receptor subtype CB1 or CB2 were seeded overnight. […] After incubation for 15 min the buffer was removed, and the cells were lyzed. The amount of cAMP was determined in a radioligand binding assay by incubating 50 µL of the cell lysate with 3 nM [^3H]cAMP in the presence of protein preparations from bovine adrenal glands (cAMP binding protein). Bound and unbound radioligand were separated by rapid filtration through GF/B filters, and radioactivity was determined by liquid scintillation counting. To test for antagonistic activity, test compounds were added to Hank’s buffered salt solution (HBSS) containing 10% dimethyl sulfoxide (DMSO), 10 min after the application of Ro-20-1724, and the mixture was incubated for 20 min at 37 °C.
(§2) As a next step, we investigated the compounds in cAMP accumulation assays, to obtain information on their functionality (Fig. 3). CB receptors are Gi protein-coupled and thus reduce the levels of cAMP in the cells upon activation.

human CB1 receptor [3] = target: T2, human CB1 receptor (Homo sapiens, UniProt P21554); test: biochemical; format: binding; settings: [3H]CP55,940 0.1 nM, CHO cell membranes; read-out: Ki ± SEM Human CB1
T2 construct: expressed in transfected cells; host or cells: CHO cells (membrane preparations)
T2 sequence (P21554 whole entry): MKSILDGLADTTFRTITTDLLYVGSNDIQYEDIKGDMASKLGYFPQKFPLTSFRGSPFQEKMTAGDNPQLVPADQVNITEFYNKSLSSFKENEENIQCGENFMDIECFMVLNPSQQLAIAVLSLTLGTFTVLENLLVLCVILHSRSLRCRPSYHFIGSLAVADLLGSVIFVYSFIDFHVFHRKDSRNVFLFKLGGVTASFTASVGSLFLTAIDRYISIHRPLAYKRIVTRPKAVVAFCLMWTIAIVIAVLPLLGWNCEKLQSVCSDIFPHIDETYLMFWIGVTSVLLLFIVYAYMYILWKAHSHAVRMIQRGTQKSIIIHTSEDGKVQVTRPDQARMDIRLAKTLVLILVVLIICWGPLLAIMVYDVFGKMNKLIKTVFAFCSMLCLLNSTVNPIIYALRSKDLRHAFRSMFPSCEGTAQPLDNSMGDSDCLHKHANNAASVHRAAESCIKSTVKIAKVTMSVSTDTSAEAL

CB1 receptor [4] = settings: membrane potential assay, cited from earlier work
human CB1 receptor [5] = target: T2, human CB1 receptor; test: cAMP accumulation assay, CHO cells stably expressing CB1; format: cell-based
Experimental: as §1, §2

human GPR55 = target: T3, human GPR55 (Homo sapiens, UniProt Q9Y2T6); test: β-Arrestin PathHunter assay, recombinant CHO cells expressing GPR55; format: cell-based; settings: for Human GPR55 % activation / Human GPR55 % inhibition: value in parentheses; for Human GPR55 % inhibition: antagonist mode versus LPI 1 µM
T3 construct: host or cells: CHO cells
T3 sequence (Q9Y2T6 whole entry): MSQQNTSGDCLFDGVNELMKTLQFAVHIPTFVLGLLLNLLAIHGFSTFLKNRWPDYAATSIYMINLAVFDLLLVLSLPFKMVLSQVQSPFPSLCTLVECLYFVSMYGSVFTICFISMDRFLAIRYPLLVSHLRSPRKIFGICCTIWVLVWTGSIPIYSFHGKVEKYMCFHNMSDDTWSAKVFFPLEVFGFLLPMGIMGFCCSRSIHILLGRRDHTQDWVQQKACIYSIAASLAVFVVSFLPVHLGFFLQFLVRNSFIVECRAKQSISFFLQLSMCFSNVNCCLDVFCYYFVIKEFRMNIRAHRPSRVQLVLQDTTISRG
Experimental: (§3) β-Arrestin assays were performed in recombinant CHO cells expressing either the human GPR18 or the human GPR55 as described before using the β-galactosidase enzyme fragment complementation technology (β-arrestin PathHunter™ assay; DiscoverX, Fremont, CA, USA).
(§4) The orphan receptors GPR18 and GPR55 can interact with certain natural and synthetic cannabinoids. […] Therefore, we investigated the new series of indole, indazole, benzimidazole and carbazole-derived structures in β-arrestin assays at GPR18 and GPR55 (Table 2). […] For the lipophilic substitutions, the following rank order of potency was observed: ethyl > methyl > chloro > fluoro. Therefore, it can be concluded that a lipophilic substitution in position 4 of the naphthyl residue was a requirement for GPR55 inhibition.

human CB2 receptor [6] = target: T1, human CB2 receptor; test: biochemical; format: binding; settings: [3H]CP55,940 0.1 nM, CHO cell membranes; read-out: Ki ± SEM Human CB2
human GPR18 = target: T4, human GPR18 (Homo sapiens, UniProt Q14330); test: β-Arrestin PathHunter assay, recombinant CHO cells expressing GPR18; format: cell-based; settings: for Human GPR18 % activation / Human GPR18 % inhibition: value in parentheses; for Human GPR18 % inhibition: antagonist mode
T4 construct: host or cells: CHO cells
T4 sequence (Q14330 1-331): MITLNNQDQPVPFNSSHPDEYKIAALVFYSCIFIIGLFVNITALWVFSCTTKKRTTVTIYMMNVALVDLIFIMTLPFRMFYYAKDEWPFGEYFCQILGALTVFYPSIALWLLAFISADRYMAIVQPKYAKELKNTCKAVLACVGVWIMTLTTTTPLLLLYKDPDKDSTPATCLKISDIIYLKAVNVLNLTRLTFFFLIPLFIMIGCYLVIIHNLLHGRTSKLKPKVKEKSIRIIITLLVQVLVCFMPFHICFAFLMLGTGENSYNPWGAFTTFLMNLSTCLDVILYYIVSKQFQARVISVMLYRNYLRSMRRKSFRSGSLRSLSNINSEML
Experimental: as §3, §4

CB1 receptor [7] = target: CB1 receptor; set-up: method as in Buchler et al. [37]; settings: versus 0.5 nM [3H]CP55,940; ref Buchler et al. [37]; cited from earlier work
CB1 receptor [8] = settings: cited from earlier work
CB2 receptor [9] = settings: cited from earlier work
CB2 receptor [10] = target: CB2 receptor; set-up: method as in Bowden et al. [43]; settings: HTRF cAMP accumulation; ref Bowden et al. [43]; cited from earlier work

SMILES | Ki (human CB1 receptor [3]) [µM] | EC50 (human GPR55) [µM] | IC50 (human GPR55) [µM] | Human GPR55 % activation (human GPR55; agonist mode) [%] | Human GPR55 % inhibition (human GPR55) [%] | Ki (human CB2 receptor [6]) [µM] | EC50 (human GPR18) [µM] | IC50 (human GPR18) [µM] | Human GPR18 % activation (human GPR18; agonist mode) | also measured
COC(=O)[C@@H](NC(=O)c1nn(CCCCCF)c2ccccc12)C(C)(C)C [compound 11, 5F-ADB] | 0.0233 ± 0.0102 | > 10 | > 10 | 0 | 6 | 0.00599 ± 0.00247 | > 10 | > 10 | > 10 (10%) | EC50 (CB2 receptor [1]; ref Banister et al. [38]): 0.0075 µM; CB2 receptor activation in cAMP accumulation assay (in words) (human CB2 receptor [2]): full agonists; EC50 (CB1 receptor [4]; ref Banister et al. [38]): 0.00059 µM; CB1 receptor activation in cAMP accumulation assay (in words) (human CB1 receptor [5]; compound at 10 µM, normalized to CP55,940 (1 µM)): partial activation
NC(=O)[C@H](Cc1ccccc1)NC(=O)c1nn(CC2CCCCC2)c2ccccc12 [compound 30] | 0.00981 ± 0.00456 | > 10 | > 10 | 11 | 9 | 0.00439 ± 0.00059 | > 10 | ~10 | 5% | Ki (CB1 receptor [7]): 0.0475 µM; Human GPR18 % inhibition (human GPR18): 57%
CC1=CC[C@@H]2[C@@H](C1)c1c(O)cc(C(C)(C)CCCCCCBr)cc1OC2(C)C [compound 45, AM11542] | – | – | – | – | – | – | – | – | – | Ki (CB1 receptor [8]; co-crystallized agonist): 0.00011 µM
CC(C)[C@H](NC(=O)c1nn(Cc2ccccc2F)c2ccccc12)C(N)=O [compound 19, AB-FUBINACA (2-F-benzyl-isomer)] | 0.00691 ± 0.00342 | > 10 | > 10 | 15 | – | 0.025 ± 0.0061 | > 10 | > 10 | 11% | Ki (CB1 receptor [7]): 0.00469 µM
COC(=O)C(NC(=O)c1ccc2c(c1)c1ccccc1n2CC1CCCCC1)C(C)(C)C (stereo not shown) [compound 41, MDMB-CHMCZCA] | 0.00575 ± 0.00165 | – | – | – | 25 | 0.00667 ± 0.0014 | – | – | – | functional behaviour at CB2 receptor (in words) (human CB2 receptor [2]; cAMP accumulation): completely lacked CB2 receptor activation; also recorded: antagonist; CB2 receptor activation in cAMP accumulation assay (in words) (human CB2 receptor [2]): failed to evoke an agonistic response; IC50 (human CB2 receptor [2]; read-out: IC50 inhibition of CB2 receptor activation, cAMP accumulation): 0.807 ± 0.137 µM; functional behaviour at CB1 receptor (in words) (human CB1 receptor [5]; cAMP accumulation): full efficacy; also recorded: agonist; EC50 (human CB1 receptor [5]; forskolin 10 µM, read-out: EC50 CB1 receptor activation, cAMP accumulation): 0.12 µM; EC50 (human GPR55; agonist mode, read-out: Human GPR55 EC50): > 10 µM; IC50 (human GPR55; antagonist mode versus lysophosphatidylinositol (LPI, 1 µM), read-out: Human GPR55 IC50): > 10 µM; EC50 (human GPR18; agonist mode, read-out: Human GPR18 EC50): > 10 µM; IC50 (human GPR18; extrapolated value, full curve could not be determined due to limited solubility, read-out: Human GPR18 IC50 (extrapolated)): 9.66 ± 1.2 µM
CCCCCn1cc(C(=O)c2cccc3ccccc23)c2ccccc21 [compound 3, JWH-018, reference compound] | 0.00151 ± 0.00067 | – | – | – | – | 0.00224 ± 0.0012 | – | – | – | Ki (CB2 receptor [9]): 0.0029 µM; Ki (CB1 receptor [8]): 0.009 µM
CC(C)(C)[C@H](NC(=O)c1nn(CCCCCF)c2ccccc12)C(N)=O [compound 23, 5F-ADB-PINACA] | 0.00143 ± 0.00069 | > 10 | > 10 | 18 | – | 0.000694 ± 7.8e-05 | > 10 | > 10 | 9% | EC50 (CB2 receptor [1]; ref Banister et al. [42]): 0.0021 µM; EC50 (CB1 receptor [4]; ref Banister et al. [42]): 0.00024 µM; Human GPR18 % inhibition (human GPR18): 21%
CCCCCn1cc(C(=O)NC(C)(C)c2ccccc2)c2ccccc21 [compound 31, Cumyl-PICA] | 0.00327 ± 0.00032 | > 10 | > 10 | 11 | 3 | 0.024 ± 0.0088 | > 10 | > 10 | 19% | EC50 (CB2 receptor [1]; ref Longworth et al. [51]): 0.0582 µM; EC50 (CB2 receptor [10]): 0.013 µM; EC50 (CB1 receptor [4]; ref Longworth et al. [51]): 0.0042 µM
